Consider 19 molecules from patent US20260071252A1, “REVERSIBLE NANOPARTICLE AGGREGATES AND METHODS FOR DETECTING PROTEASES” (The Regents of the University of California, priority 2022, published 2026).

A short description of test [1]: Dissociation of Arg-Arg-AuNPs assemblies with HS-PEGs (UV-Vis percentage of dissociation, MANTA size). As to conditions: for dissociation of Arg-Arg-AuNPs assemblies: anchoring group / non-PEG ligand controls, up to >100 μM. From the text:
Dissociation of the AuNPs assemblies. […] HS-PEG6-OCH3 was chosen because its grafting on AuNPs ensure a high colloidal stability of these latter. Indeed, the grafting of thiolated PEGs has been widely reported in the literature via the formation of a strong Au—S bond conferring to the particles a high colloidal stability due to a combination of hydrophilicity and steric hindrance.^30-32 The Au—S bond being stronger than the arginine-citrate, arginine-gold or even citrate-gold interactions, […] was expected to be capable of progressively replacing the arginine/citrate layers at the gold surface, disrupting the electrostatic network, and eventually dispersing the AuNPs (Scheme 1). Briefly, aqueous suspensions Arg-Arg-AuNPs assemblies were exposed to increasing concentrations of HS-PEG6-OCH3, and the dissociation of the assemblies was characterized by TEM, MANTA, FTIR and UV-Vis spectroscopies (FIG. 2).
The presence of a PEG layer around the AuNPs explains the difference in the hydrodynamic diameter versus the initial AuNPs-citrate (48±32 nm vs 40±25 nm). Remarkably, the LSPR band of the dissociated AuNPs was identical to the AuNPs-citrate: The color of the sample returned to its initial bright red color. […] For the remainder of this study, the efficiency of the dissociation will be characterized by the percentage of dissociation (%) as measured by UV-Vis spectroscopy (comparison between the LSPR band after dissociation versus that from AuNPs-citrate). See the experimental section in the supporting information for more details. […] This finding is particularly interesting because the typical grafting density of HS-PEG6-OCH3 on dispersed AuNPs is reported to be between 3.5 and 4 HS-PEG6-OCH3/nm^2.^33 This implies that no excess of HS-PEGs was needed to dissociate the entire assembly-only enough to cover all the gold surface. It is worth noting that the kinetics of the dissociation was almost instantaneous (equilibrium reached within a minute) (FIG. 14). A video of the dissociation of the AuNPs assemblies is available online.
Dissociation. Stock solutions of the different HS-PEGs with concentrations ranging from 10 μM to 1 mM were prepared. Specific volumes of each solution were added to a 96-well plate in order to reach the desired final HS-PEGs concentration and then 100 μL of Arg-Arg-AuNPs were added. For complex matrices experiments, the Arg-Arg-AuNPs were first concentrated 10 times by centrifugation and then dispersed in complex media (sea water, pooled human saliva, plasma, urine, bile or HEK cell lysates) that represented thus 90% of the total volume except for bile, which was only 20%. Quickly after the addition of AuNPs, the dissociation of the assembly was monitored and the ratio of the absorbances at 520 nm and 700 nm was recorded over time. The percentage of dissociation is described as follows:
(§1) The optical absorption measurements were collected using a hybrid multi-mode microplate reader (Synergy™ H1 model, BioTek Instruments, Inc.) in a 96-well plate. The dissociation of assembly was characterized by measuring the ratio of the absorbance at 520 nm or 530 nm and 700 nm or 820 nm for 20 nm NPs or 40 nm NPs, respectively.
The multispectral advanced nanoparticle tracking analysis (MANTA) is a technique that builds images from the particles' light scattering via three lasers of different wavelengths (for example, blue, green, and red); the wavelength of scattering depends on nanoparticle size. Thus, small particles (less than, or <, 100 nm) appear blue while larger particles appear greener or redder. MANTA uses these images to count the nanoparticles and calculate their size based on Brownian motion. […] 3000™ (Horiba Scientific, USA). The temperature was set to 25° C. during the measurement. Automated noise analysis determines the optimal wavelength for representing each nanoparticle. Here, 8-bit composite videos were generated, and 10 videos were used per analysis (300 frames for seconds).

Test [2] in a line: Peptide-enabled dissociation of RRK-induced AuNP aggregates. As to conditions: for particle dissociation: RRK-induced AuNP aggregates; for dissociation of aggregated AuNPs in diverse matrixes: 100% human saliva, plasma, urine, and seawater; for concentration that dissociates AuNP aggregates: Gly spacer length. On the procedure:
After inducing AuNP aggregates by the RRK peptides, the A1 peptides with different concentrations from 7 to 300 μM were used to dissociate AuNP aggregates. The plasmonic resonance peak of AuNP aggregates blue shifted to 520 nm after particle dissociation. (FIG. 37b). The hydrodynamic diameter of AuNP aggregates (greater than (>) 1 μm) was reduced to 27±0.07 nm, and the surface charge of AuNPs was—13.4±1.03 mV because of surface modification with neutral charged A1 peptides (150 μM) and residual citrates (FIG. 37c). Particle dissociation induced color change from blue to red and a decrease in size as confirmed by time-dependent photographs, multi-laser wavelength nanoparticle tracking analysis (M-NTA), and TEM (FIG. 37d-e and FIG. 45A-C).
To further study the role of each amino acid in the A1 peptide, we synthesized eight peptide sequences (from A2 to A8) for control experiments (FIG. 46A-H). Table 1 includes peptide sequence, net charge, critical dissociation concentrations (CDC), and design rationale. First, we replaced Cys residue with Gly (i.e., A2) to confirm the role of the anchoring group. […] Second, we hypothesized that negatively charged EE residues were required for particle dissociation because they provide electrostatic repulsions for citrate-coated AuNPs.
Briefly, 10 μM of RRK peptide was used to aggregate 100 μL of AuNPs (conc approximately 3.6 nM). The particle aggregation rapidly occurred (less than 10 s), changing color from red to blue. Then the desired dissociation peptides were used to dissociate the AuNP aggregates. It is notable that these exemplary AuNPs are stabilized by citrate. Different surface ligands (for example, BSPP) and different sizes (40 or 60 nm) require different amounts of RRK peptide for particle aggregation.
Briefly, RRK peptides (8-10 μM) was first used to trigger AuNP aggregation in distilled water. The sample was centrifuged at […] for 5 min to remove the supernatant. Then, the pellet was re-dispersed in 100% human saliva, plasma, urine, and seawater. After re-dispersion, the desired amounts of dissociation peptide were used to dissociate AuNPs aggregates in different matrixes. […] The experiment was performed with three replicates, and the microplate reader was used to measure spectral scanning from 300 to 900 nm before and after dissociation. The ratiometric signal (λ520/λ700) was referred as dissociation. The data was blanked to remove background signal.

The target of test [3] is SARS-CoV-2 main protease (Mpro) (Severe acute respiratory syndrome coronavirus 2, UniProt P0DTD1).
Test [4] is described as follows: Peptide-induced (Arg-Arg) assembly of AuNPs-citrate, TEM/MANTA/UV-Vis.
Text: Formation of AuNP assemblies. In this study, we investigated the possibility of forming convenient and reversible AuNPs assemblies using only elementary 15 nm AuNPs-citrate suspended in water and short peptides without the need for a complex surface modification. Peptides were used because they are relatively bulky and thus their steric prevented the particles from entering a permanent aggregated state. Arginine in particular can strongly interact with citrate anions via electrostatic interactions. A dipeptide containing two repetitions of arginine (Arg-Arg or RR) was thus used to interact with multiple particles at the same time and induce assembly.
Multispectral advanced nanoparticles tracking analysis (MANTA) was then used to confirm the size increase: The initial blue scattering corresponding to a hydrodynamic diameter of 40±25 nm (FIG. 1C) transformed immediately into red scattering corresponding to a hydrodynamic diameter of approximately 467±120 nm (FIG. 1D). Importantly, the count of particles decreased by more than 90%—from 2.5×10^5/mL to 2×10^4/mL, thus confirming that the vast majority of the AuNPs-citrate were aggregated. TEM images at different magnifications are seen in the supporting information (FIG. 10 and FIG. 11).
AuNPs Assembly and Dissociation Assembly. Typically, 1 mL of AuNPs-citrate at OD=1.5 was mixed with 50 μL of Arg-Arg (100 μM) to provoke the AuNPs assembly. The color of the suspensions rapidly changed from red to blue. The assembled AuNPs (Arg-Arg-AuNPs) were stable over time when stored at 4° C. and could be used for dissociation even month after their assembly.
as §1
The multispectral advanced nanoparticle tracking analysis (MANTA) is a technique that builds images from the particles' light scattering via three lasers of different wavelengths (for example, blue, green, and red); the wavelength of scattering depends on nanoparticle size. Thus, small particles (less than, or <, 100 nm) appear blue while larger particles appear greener or redder. MANTA uses these images to count the nanoparticles and calculate their size based on Brownian motion. MANTA was performed with the VIEWSIZER 3000™ (Horiba Scientific, USA). The temperature was set to 25° C. during the measurement. Automated noise analysis determines the optimal wavelength for representing each nanoparticle. Here, 8-bit composite videos were generated, and 10 videos were used per analysis (300 frames for seconds). A quartz cuvette with minimum volume of 1 mL was used for the measurement and the AuNPs concentrations was set up at 0.04 nM.

The mark [5] stands for this setting: critical dissociation concentration, X (no dissociation).

“Also recorded” adds a separate entry of the source. Where no end group is shown, it is not given here.

Take `O=C(O)CCOCCOCCOCCOCCOCCOCCOCCOCCOCCOCCOCCOCCS` [HS-PEG12-COOH, HS—(CH2CH2O)12—CH2CH2COOH]: in test [1] (from concentrations of 10 μM), the assemblies dissociated worked out at 100%. On to `O=C(O)c1ccc(S)cc1` [MBA, 4-mercaptobenzoic acid, reference compound], for which the “dissociation of Arg-Arg-AuNPs assemblies” value in test [1] is listed as “none could dissociate the aggregates”.

Take `O=C(O)CCS` [MPA, 3-mercaptopropionic acid, reference compound]: in test [1], the “dissociation of Arg-Arg-AuNPs assemblies” value was “none could dissociate the aggregates”. Regarding Ace-CGGKKEEAVLQ-Am [Peptide A15], in test [2], the particle dissociation entry is on record as “higher dissociation capacity than the A14 peptide; also recorded: dissociated AuNP aggregates”.

Take Ace-CGGKKEEAVLQSGF-Am [Peptide A19]: the “peptide concentration causing non-desired particle dissociation” value in test [3] is “over 50 μM”.

Ace-EEKKAAC-Am [Peptide A10]: the CDC in test [2] (spacer comparison PP, AA, GG) was determined as 150 µM.

In the case of “Ace-EEKKGGC-Am (Ac-EEKKGGC-NH2) [Peptide A11]”, in test [2], the “dissociation of aggregated AuNPs in diverse matrixes” value is reported as “successfully dissociated the aggregated AuNPs in diverse matrixes”, the “concentration that dissociates AuNP aggregates” value came to 16 µM and the particle dissociation result is “highest dissociation capacity compared to other spacers”. The same molecule registered a CDC in test [2] (spacer comparison PP, AA, GG) of 16 µM. Take “Ace-EEKKGGCAVLQ-Am (Ac-EEKKGGCAVLQ-NH2) [Peptide A17]”: the particle dissociation entry in test [2] is “failed to dissociate AuNP aggregates; also recorded: decreased the dissociation capacity”. Consider “Ace-EEKKGGGGC-Am (Ac-EEKKGGGGC-NH2) [Peptide A12]”, for which, in test [2], the “dissociation of aggregated AuNPs in diverse matrixes” value is “successfully dissociated the aggregated AuNPs in diverse matrixes” and the “concentration that dissociates AuNP aggregates” value was determined as 16 µM. “Ace-EEKKGGGGGGC-Am (Ac-EEKKGGGGGGC-NH2) [Peptide A13]”: the “dissociation capacity lower than the A12 peptides” value in test [2] (same peptide concentration (30 μM)) came to 25%. In the case of “Ace-EEKKPPG-Am (Ac-EEKKPPG-NH2) [Peptide A2]”, the particle dissociation result in test [2] is on record as “failed to dissociate AuNP aggregates”. Ace-EEPPC-Am [Peptide A7]: the “CDC” value in test [2] (setting [5]) was greater than 300 µM. Also, the “decreased to % of the dissociation capacity” value in test [2] (relative to A1 peptide) was found to be 30%.

Turning to “Ace-EEPPKKC-Am (Ac-EEPPKKC-NH2) [Peptide A5]”, the “dissociation capacity lower than A1 peptide” value in test [2] is on record as 50%. In addition, the “CDC” value in test [2] (setting [5]) is greater than 300 µM. With “Ace-KEEKKPPC-Am (Ac-KEEKKPPC-NH2) [Peptide A4]”, the particle dissociation entry in test [2] is reported as “no particle dissociations”. As to “Ace-KKEEPPC-Am (Ac-KKEEPPC-NH2) [Peptide A6]”, the particle dissociation result in test [2] was “particle dissociation was quenched”. As to Arg-Arg, the “decrease of the count of particles” value in test [4] (MANTA, from 2.5×10^5/mL to 2×10^4/mL after Arg-Arg) is given as “more than 90%”. In addition, the “Arg-Arg-induced aggregation of AuNPs-citrate in complex media” value in test [4] (biological fluids, high concentrations of Arg-Arg (>200 μM)) is on record as “could not induce the AuNPs-citrate aggregation in biological fluids”. In addition, the “hydrodynamic diameter (MANTA) after addition of di-arginine peptide” value in test [4] (excess (10^4 equiv.), 10 μM Arg-Arg, 10 minutes, initial AuNPs-citrate 40±25 nm) was “approximately 467±120 nm”. Regarding “Arg-Gly-Gly-Gly-Arg (RGGGR-NH2) [reference compound]”, in test [4] (FIG. 1F), the “affinity for the AuNPs-citrate compared to Arg-Arg (RR)” value is “higher affinity for the particles than RR”. For “NH2-EEKKPPC-Am (H-EEKKPPC-NH2) [Peptide A3]”, in test [2], the particle dissociation entry is reported as “no particle dissociations”.

Regarding SGFR, in test [3], the “impact of released fragment on the dissociation process” value is “negligible impact on the dissociation process”.
